Drawing on patent publication US10660877B2 (BRISTOL-MYERS SQUIBB COMPANY, priority 2016, dated 2020), this text covers IC50 for ten molecules.

The target in one assay is human TLR7 (Homo sapiens (Human), UniProt Q9NYK1). The assay can be described thus: TLR7 inhibition reporter assay (HEK-Blue cells, SEAP reporter, gardiquimod stimulation). It is filed as cell-based. The note with it: HEK-Blue cells overexpressing human TLR7, gardiquimod 7.5 μM. Background: A reporter such as luciferase makes a cellular process visible.
Chain of human TLR7 (Q9NYK1 27-1049): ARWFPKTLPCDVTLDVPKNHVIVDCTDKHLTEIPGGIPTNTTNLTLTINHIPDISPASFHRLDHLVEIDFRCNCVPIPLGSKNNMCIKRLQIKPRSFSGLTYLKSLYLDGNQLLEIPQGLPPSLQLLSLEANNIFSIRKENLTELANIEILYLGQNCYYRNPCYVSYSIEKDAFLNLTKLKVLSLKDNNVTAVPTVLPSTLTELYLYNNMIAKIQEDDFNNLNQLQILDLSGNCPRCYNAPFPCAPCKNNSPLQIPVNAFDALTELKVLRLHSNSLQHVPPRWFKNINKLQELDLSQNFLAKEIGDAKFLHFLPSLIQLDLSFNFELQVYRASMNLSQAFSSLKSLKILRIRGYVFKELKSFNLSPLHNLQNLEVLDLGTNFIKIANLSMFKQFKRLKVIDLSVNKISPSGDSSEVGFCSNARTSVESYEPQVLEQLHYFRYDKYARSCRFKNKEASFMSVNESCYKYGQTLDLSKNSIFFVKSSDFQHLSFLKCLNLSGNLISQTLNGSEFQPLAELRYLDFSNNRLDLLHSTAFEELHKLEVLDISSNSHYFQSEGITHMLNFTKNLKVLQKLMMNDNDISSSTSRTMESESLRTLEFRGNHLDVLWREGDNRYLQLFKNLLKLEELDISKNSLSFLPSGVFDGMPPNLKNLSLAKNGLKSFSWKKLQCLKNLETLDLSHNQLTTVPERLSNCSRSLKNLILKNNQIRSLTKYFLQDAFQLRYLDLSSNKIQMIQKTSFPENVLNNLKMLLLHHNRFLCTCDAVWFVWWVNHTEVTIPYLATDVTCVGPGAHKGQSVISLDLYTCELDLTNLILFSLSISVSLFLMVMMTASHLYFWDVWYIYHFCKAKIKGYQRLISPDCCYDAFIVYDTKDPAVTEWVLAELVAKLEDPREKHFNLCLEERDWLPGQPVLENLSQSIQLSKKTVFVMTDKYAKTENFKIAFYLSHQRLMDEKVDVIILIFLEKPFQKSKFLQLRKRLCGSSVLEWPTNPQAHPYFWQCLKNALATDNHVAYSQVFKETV
For a further assay, the target named is human TLR8 (Homo sapiens (Human), UniProt Q9NR97). Description: TLR8 inhibition reporter assay (HEK-Blue cells, SEAP reporter, R848 stimulation).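 Note: compounds tested from 0.05 nM to 50 µM, 22 h at 37 °C, SEAP measured with HEK-Blue Detection, inhibition relative to agonist plus DMSO versus a known inhibitor.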 The note with it: read-out: TLR8 IC50, HEK-Blue cells overexpressing human TLR8, R848 15.9 μM.
Chain of human TLR8 (Q9NR97 27-1041): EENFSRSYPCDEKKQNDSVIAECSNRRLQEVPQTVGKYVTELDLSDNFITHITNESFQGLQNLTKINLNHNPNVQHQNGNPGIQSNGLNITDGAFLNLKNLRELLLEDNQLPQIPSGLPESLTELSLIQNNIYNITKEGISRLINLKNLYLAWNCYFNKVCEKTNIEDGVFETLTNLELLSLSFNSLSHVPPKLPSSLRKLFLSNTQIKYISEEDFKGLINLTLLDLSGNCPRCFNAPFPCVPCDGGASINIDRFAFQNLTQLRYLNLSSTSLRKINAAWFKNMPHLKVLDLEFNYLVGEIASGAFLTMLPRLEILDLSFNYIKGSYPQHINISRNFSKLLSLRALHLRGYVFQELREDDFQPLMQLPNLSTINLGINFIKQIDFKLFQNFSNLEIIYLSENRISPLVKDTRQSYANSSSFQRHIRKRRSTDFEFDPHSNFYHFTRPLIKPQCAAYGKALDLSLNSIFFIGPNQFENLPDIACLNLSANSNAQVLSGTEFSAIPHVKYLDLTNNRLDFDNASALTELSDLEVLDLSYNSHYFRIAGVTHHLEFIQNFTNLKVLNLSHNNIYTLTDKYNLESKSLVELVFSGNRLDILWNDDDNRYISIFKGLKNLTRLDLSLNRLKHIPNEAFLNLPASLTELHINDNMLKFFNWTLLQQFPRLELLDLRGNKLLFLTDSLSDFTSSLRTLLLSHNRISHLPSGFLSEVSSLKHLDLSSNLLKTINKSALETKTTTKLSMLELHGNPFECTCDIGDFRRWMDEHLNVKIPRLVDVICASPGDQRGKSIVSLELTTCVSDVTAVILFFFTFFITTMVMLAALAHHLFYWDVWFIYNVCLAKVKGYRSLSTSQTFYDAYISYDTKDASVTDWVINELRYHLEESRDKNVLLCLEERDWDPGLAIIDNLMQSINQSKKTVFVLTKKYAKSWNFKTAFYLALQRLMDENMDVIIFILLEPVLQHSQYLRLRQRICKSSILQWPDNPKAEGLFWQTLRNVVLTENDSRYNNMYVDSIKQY
A further assay deals with human TLR9 (Homo sapiens (Human), UniProt Q9NR96). The assay can be described thus: TLR9 inhibition reporter assay (HEK-Blue cells, SEAP reporter, ODN2006 stimulation).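 Note: compounds tested over 0.05 nM to 50 µM, 22 h incubation, inhibition taken as SEAP signal drop from agonist plus DMSO wells toward a known inhibitor control.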 The note with it: read-out: TLR9 IC50, HEK-Blue cells overexpressing human TLR9, ODN2006 5 nM.
Chain of human TLR9 (Q9NR96 26-1032): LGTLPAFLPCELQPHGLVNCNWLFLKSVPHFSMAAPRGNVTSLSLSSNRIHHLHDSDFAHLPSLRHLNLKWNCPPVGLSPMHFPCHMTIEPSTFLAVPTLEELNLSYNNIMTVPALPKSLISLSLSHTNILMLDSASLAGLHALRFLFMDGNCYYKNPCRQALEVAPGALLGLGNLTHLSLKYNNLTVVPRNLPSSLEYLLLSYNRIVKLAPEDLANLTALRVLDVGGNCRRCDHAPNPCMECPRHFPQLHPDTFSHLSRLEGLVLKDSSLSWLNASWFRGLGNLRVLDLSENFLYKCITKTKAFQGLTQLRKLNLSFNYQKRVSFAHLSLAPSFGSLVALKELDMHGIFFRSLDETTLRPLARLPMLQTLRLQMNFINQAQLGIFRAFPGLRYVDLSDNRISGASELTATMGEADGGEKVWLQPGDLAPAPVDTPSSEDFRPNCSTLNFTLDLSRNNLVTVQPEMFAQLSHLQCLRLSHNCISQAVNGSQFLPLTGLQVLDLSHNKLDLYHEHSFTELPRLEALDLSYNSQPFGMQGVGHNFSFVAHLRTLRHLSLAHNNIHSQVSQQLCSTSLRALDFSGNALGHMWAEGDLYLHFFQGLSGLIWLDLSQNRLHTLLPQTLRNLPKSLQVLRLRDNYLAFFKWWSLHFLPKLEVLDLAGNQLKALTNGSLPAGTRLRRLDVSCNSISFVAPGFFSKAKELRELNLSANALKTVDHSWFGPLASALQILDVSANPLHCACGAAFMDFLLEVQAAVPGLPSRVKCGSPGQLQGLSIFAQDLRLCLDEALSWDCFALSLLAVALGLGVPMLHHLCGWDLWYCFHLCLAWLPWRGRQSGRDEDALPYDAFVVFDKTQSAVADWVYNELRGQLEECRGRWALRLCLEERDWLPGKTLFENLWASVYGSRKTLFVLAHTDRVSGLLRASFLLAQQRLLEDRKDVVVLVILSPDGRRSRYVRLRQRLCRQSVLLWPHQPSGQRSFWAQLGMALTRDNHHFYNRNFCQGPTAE

Molecules are shown by their SMILES.

Method for human TLR7: TLR7/8/9 Inhibition Reporter Assays
Briefly, cells are seeded into Greiner 384 well plates (15000 cells per well for TLR7, 20,000 for TLR8 and 25,000 for TLR9) and then treated with test compounds in DMSO to yield a final dose response concentration range of 0.05 nM-50 μM. […] After a 22 hour incubation at 37° C., 5% CO2, SEAP levels are determined with the addition of HEK-Blue™ Detection reagent (Invivogen), a cell culture medium that allows for detection of SEAP, according to manufacturer's specifications. The percent inhibition is determined as the % reduction in the HEK-Blue signal present in wells treated with agonist plus DMSO alone compared to wells treated with a known inhibitor.

On to `CNC(=O)CN1CCC(c2ccc3[nH]c(-c4cc(C)ncc4C)c(C(C)C)c3c2)CC1` [Example 653, 2-(4-(2-(2,5-dimethylpyridin-4-yl)-3-isopropyl-1H-indol-5-yl)piperidin-1-yl)-N-methylacetamide], for which the figures for the IC50 against human TLR7, at human TLR8 and at human TLR9 were 13.9 nM, 4.4 nM and 4160 nM, respectively.

In the case of `Cc1cc(-c2[nH]c3ccc(C4CCN(Cc5nncn5C)CC4)cc3c2C(C)C)c(F)cn1` [Example 737, 2-(5-fluoro-2-methylpyridin-4-yl)-3-isopropyl-5-(1-((4-methyl-4H-1,2,4-triazol-3-yl)methyl)piperidin-4-yl)-1H-indole], the IC50 on human TLR7 is 14.5 nM; on human TLR8 it was 5.1 nM; on human TLR9 it was above 50000 nM.

For the molecule `Cc1cc(-c2[nH]c3ccc(C4CCN(CC(=O)NC5CCOCC5)CC4)cc3c2C(C)C)cc(C)n1` [Example 280, 2-(4-(2-(2,6-dimethylpyridin-4-yl)-3-isopropyl-1H-indol-5-yl)piperidin-1-yl)-N-(tetrahydro-2H-pyran-4-yl)acetamide], the IC50 came to 3 nM on human TLR7, 6.1 nM at human TLR8 and 350 nM at human TLR9.

Take `CCc1c(-c2cc(C)nc(C)c2)[nH]c2ccc(C3CCNCC3)cc12` [Example 2, 2-(2,6-dimethylpyridin-4-yl)-3-ethyl-5-(piperidin-4-yl)-1H-indole]: the IC50 turned out to be 4.7 nM on human TLR7, 11.2 nM on human TLR8 and 248 nM at human TLR9.

As to `Cc1cc(-c2[nH]c3ccc(C4CCN(C(=O)C5(C)CCN(C)CC5)CC4)cc3c2C(C)C)cc(C)n1` [Example 176, (1,4-dimethylpiperidin-4-yl)(4-(2-(2,6-dimethylpyridin-4-yl)-3-isopropyl-1H-indol-5-yl)piperidin-1-yl)methanone], the IC50 against human TLR7 came to 11.1 nM; at human TLR8, 21.7 nM; on human TLR9, 663 nM.

On to `Cc1cc(-c2[nH]c3ccc(C4CCNCC4)cc3c2C(C)C)c(Br)c(C)n1` [Example 40, 2-(3-bromo-2,6-dimethylpyridin-4-yl)-3-isopropyl-5-(piperidin-4-yl)-1H-indole], for which the half-inhibitory concentration (IC50) amounted to 16.5 nM at human TLR7, 4.1 nM at human TLR8 and 1480 nM on human TLR9.

With `Cc1cc(-c2[nH]c3ccc(C4CCN(C(=O)C(F)(F)F)CC4)cc3c2C(C)C)ccn1` [Example 614, 2,2,2-trifluoro-1-(4-(3-isopropyl-2-(2-methylpyridin-4-yl)-1H-indol-5-yl)piperidin-1-yl)ethan-1-one], the IC50 stood at 119 nM at human TLR7, 469 nM at human TLR8 and 17500 nM on human TLR9.

For the molecule `Cc1cc(-c2[nH]c3ccc(C4CCN(C5CC(C)OC6(CC6)C5)CC4)cc3c2C(C)C)cc(C)n1` (stereo not drawn) [Example 456, 2-(2,6-dimethylpyridin-4-yl)-3-isopropyl-5-(1-(5-methyl-4-oxaspiro[2.5]octan-7-yl)piperidin-4-yl)-1H-indole], the IC50 against human TLR7 turned out to be 4.2 nM; at human TLR8 it was 5.8 nM; at human TLR9 it was 340 nM.

Turning to `Cc1cc(-c2[nH]c3ccc(C4CCN(C(=O)CN5CCOC[C@@H]5CO)CC4)cc3c2C(C)C)cc(C)n1` [Example 405, (S)-1-(4-(2-(2,6-dimethylpyridin-4-yl)-3-isopropyl-1H-indol-5-yl)piperidin-1-yl)-2-(3-(hydroxymethyl)morpholino)ethan-1-one], the half-inhibitory concentration (IC50) was found to be 2.1 nM against human TLR7, 12.9 nM on human TLR8 and 527 nM on human TLR9.

With `CNCCN1CCC(c2ccc3[nH]c(-c4ccnc(N5CCN(C)CC5)c4)c(C)c3c2)CC1` [Example 746, N-methyl-2-(4-(3-methyl-2-(2-(4-methylpiperazin-1-yl)pyridin-4-yl)-1H-indol-5-yl)piperidin-1-yl)ethan-1-amine], the IC50 was 4030 nM on human TLR7, above 50000 nM on human TLR8 and 69 nM on human TLR9.

In general, IC50 refers to the midpoint of a concentration-inhibition curve.
